Measurements published in patent US20230277553A1, “THERAPEUTIC COMPOSITION OF CURE-PRO COMPOUNDS FOR TARGETED DEGRADATION OF BET DOMAIN PROTEINS, AND METHODS OF MAKING AND USAGE” (CORNELL UNIVERSITY, priority 2020, published 2023).
Entries after “also recorded” stand apart in the source; their conditions may differ.

Legend:
BRD4 [1] = biological target: T1, BRD4 (Homo sapiens, UniProt O60885); assay: CURE-PRO-mediated BRD4 degradation with VHL ligands, WES (ProteinSimple), MCF7 cells; assay type: cell-based; set-up: endogenous in cells; settings: MCF7, 10 μM each
Description: (§1) All cell lines were purchased from ATCC or DSMZ and grown at 37° C. with 5% CO2. Human HeLa cells were cultured in complete growth medium (Dulbecco's modified Eagle's medium (DMEM) supplemented with 10% FBS); MCF7 cells were cultured in complete growth medium (Dulbecco's modified Eagle's medium (DMEM) supplemented with 10% FBS and 0.01 mg/ml human recombinant insulin (Sigma Aldrich); Namalwa and MOLM-13 cells were cultured in complete growth medium (RPMI 1640 medium supplemented with 10% FBS); MV-4-11 were cultured in complete growth medium (Iscove's Modified Dulbecco's medium, supplemented with 10% FBS); HCT116 cells were cultured in complete growth medium (McCoy's 5a Medium supplemented with 10% FBS). For cellular degradation of BRD4 studies, cells were seeded in a 12-well plate at 70-80% confluency, allowed to attach overnight, and incubated with the indicated compounds for the indicated time. When indicated, a 15-minute pretreatment with 10 μM pomalidomide, 10 μM VHL298, 10 μM Nutlin3a, 1 μM MG-132 or 1 μM Carfilzomib was performed before the addition of CURE-PROs. For washout studies, after CURE-PRO treatment, media was aspirated and incubated with complete medium for the indicated time before lysis.
WES Simple analysis was performed on WES system (ProteinSimple-Biotechne) according to the manufacturer's instructions. Total protein concentrations of cell lysates were determined by the Pierce BCA kit (Thermo Fisher). 3 μL of 0.3 μg/μL of the protein lysate was loaded onto a 12- to 230-kDa WES assay plate (ProteinSimple) where 300 nL sample was withdrawn through a capillary, subjected to electrophoretic separation of proteins by size, and followed by the simultaneous, HRP-based detection of proteins using the Anti-Rabbit Detection Module (Proteinsimple: #DM-001). The electropherograms were checked then the automatic peak detection was manually corrected if it was required.
MCF7 cells (3×10^6) were treated for 4-24 hours continually (FIG. 72), or treated for 4h, washed and incubated for a further 4-24 h with the compounds solubilized in DMSO. Compounds were added at 10 μM each. Cells were washed, lysed, and clarified by centrifugation. The total protein concentration was quantified by the BCA method (ThermoFisher Sciences). Standardized protein samples were electrophoresed and imaged as described in the WES Proteinsimple section above. FIG. 69 depicts the CURE-PRO-mediated BRD4 degradation for the BRD-E50 monomer, and VHL ligand, 8305.
MCF7 cells (3×10^6) were treated for 24 hours with the compounds solubilized in DMSO. CURE-PRO monomers were added at 10 μM each and the proteasomal inhibitors at 1 μM. Standardized protein samples were electrophoresed and imaged as described in the WES Proteinsimple section above. FIGS. 73 and 75 depicts the dependence of the proteasome for CURE-PRO-mediated BRD4 degradation.
MCF7 cells (3×10^6) were treated for 24 hours with the compounds solubilized in DMSO. CURE-PRO monomers were added at 10 μM. FIG. 74 depicts the CURE-PRO-mediated BRD4 degradation for the BRD-E50 monomer, and VHL ligand, 8305 combined in a 1:1 ratio after 24 h.

BRD4 [2] = biological target: T1, BRD4; assay: CURE-PRO-mediated BRD4 degradation with VHL ligands, Western blot, MCF7 cells; assay type: cell-based; set-up: endogenous in cells; settings: MCF7, 24 h, 1:1 with 8305, 100 nM-10 μM
Description: as §1
HeLa, MCF7, or HCT116 cells (2.5-3×10^6) were treated for 24 hours with the indicated compounds solubilized in DMSO. The cells were washed in ice-cold PBS and were then lysed in RIPA lysis buffer (150 mM NaCl, 5 mM EDTA, 1% NP-40, 0.5% sodium deoxycholate, 0.1% SDS, 50 mM Tris, pH 8.0.) with Roche protease inhibitor complete cocktail and phosphatase inhibitors (10 mM sodium fluoride, 10 mM sodium pyrophosphate, 1 mM sodium orthovanadate and 20 mM β-glycerophosphate). The total protein concentrations were determined by Bradford Protein Assay and 10-20 μg of protein was loaded onto 4-15% Tris-Glycine gradient gels (Biorad). After standard gel electrophoresis, the separated proteins were transferred to PVDF membrane by wet transfer. The immunoblots were then blocked for 1 hour in 5% skim milk in TBST or 5% BSA in TBST, according to manufacturer's instructions, before an overnight incubation at 4° C. with indicated antibodies and membranes. Membranes were then incubated with the appropriate horseradish peroxidase-conjugated secondary antibodies (1:5,000 dilution) for 1 h at room temperature and the bands were visualized using the Clarity Max Western ECL Substrate (Biorad) and the ChemiDoc Imaging System (Biorad). Signal was detected with ECL Western Blotting Substrate (Pierce) and X-ray film processed with a Konica SRX-101 X-ray film processor or captured by Bio-Rad's Chemidoc Imaging system.
MCF7 cells (3×10^6) were treated for 24 h with the compounds solubilized in DMSO. Compounds were added at 100 nM-10 μM. […]

SMILES: CCNC(=O)C[C@@H]1N=C(c2ccc(Cl)cc2)c2cc(OCCCCC(=O)Nc3cccc(B(O)O)c3)ccc2-n2c(C)nnc21 [BRD-E20, (3-(5-(((4S)-6-(4-chlorophenyl)-4-(2-(ethylamino)-2-oxoethyl)-1-methyl-4H-benzo[f][1,2,4]triazolo[4,3-a][1,4]diazepin-8-yl)oxy)pentanamido)phenyl)boronic acid]
- BRD4 degradation, with VHL ligand 8304 (WES) (BRD4 [1]): failed to induce BRD4 degradation
- BRD4 degradation, with VHL ligand 8305 (WES) (BRD4 [1]; 1:1 with 8305, 4-24 h, with washout where stated): caused BRD4 degradation; also recorded: marked BRD4 degradation
- BRD4 degradation, with VHL ligand 8305 (Western blot) (BRD4 [2]): there is degradation of BRD4
